Experimental data from patent US20090156638A1, “Uses of nordihydroguaiaretic acid (NDGA) and derivatives thereof in preventing transmission of sexually transmitted diseases” (priority 2007, published 2009).
Where two headings read alike, the source gives them in different places.

What was measured:
HSV-1 [1] = assay: Mutation-insensitivity: IC50 against HSV-1 over ten virus passages; assay type: cell-based
Text: In contrast, host factors, unlike viral factors, are under no selective pressure to mutate and are in general structurally invariable. […] Table 1 compares the IC50 of M4N and acyclovir for ten passages.

HSV-1^R = conditions: 40 μM; explanted mouse trigeminal ganglia
Sp1 enhancer sequence = conditions: ethidium displacement; G4N concentration causing 50% reduction of DNA-ethidium fluorescence
Text: (§1) The […] (IE) ICP4 gene of HSV is essential for HSV replication.

HSV-1 [2] = conditions: topical application for six days in guinea pigs, up to 50 mM; reference (34); cited from earlier work
HSV-1 [3] = conditions: for efficacy against HSV-1 cutaneous infection: day 6
Protocol: The dorsal cutaneous guinea pig model system is a well-established model for HSV-1 infection.
In FIGS. 6A-6D, for topical treatment with M4N sections of shaved and depilated dorsal guinea pig skin were infected equally were infected with HSV-1.
McKrae strain). […] Treatments were administered twice daily and photogragphs were taken at day 6 post-infection. […] Regions 1 and 4 were infected with high levels of HSV-1 (1×10^8 pfu/mL), regions 2 and 5 were infected with moderate levels of HSV-1 (1×10^6 pfu/mL) and regions 3 and 6 were infected with low levels of HSV-1 (1×10^4 pfu/mL).

HIV-1 = conditions: read-out: Inhibitory Concentration (IC50 or EC50), Cos cells
HSV-2 = assay: Mouse vaginal model of HSV-2 infection; assay type: in vivo, CF-1 mice; conditions: for animals infected: 10 mice per group
Protocol: The efficacies of […] (FIG. 8A) and […] (FIG. 8A) against HSV-2 in a mouse vaginal model system have also been examined. […] At the end of three days, the vaginal lavages were collected from the washings of the vagina regions. The status of the vaginal HSV-2 infection and replication were examined by their cytopathic effects on cultured human foreskin fibroblast cells. Monitoring and scoring were carried out by three persons independently.

HIV-1RTMF = conditions: read-out: Inhibitory Concentration (IC50 or EC50), H9 cells
HSV-1 [4] = conditions: read-out: Inhibitory Concentration (IC50 or EC50)
[5] = system: acyclovir-resistant strains of HSV-1 (HSV-1^R); conditions: read-out: Inhibitory Concentration (IC50 or EC50)
SIVmac239 = conditions: read-out: Inhibitory Concentration (IC50 or EC50), 174 × CEM cells
[6] = system: Sp1 transcription factor binding to the major groove of Sp1 site; conditions: by competition for binding or altering DNA conformation
Text: as §1

Compound Nc1nc2c(ncn2COCCO)c(=O)[nH]1 [Acyclovir, acyclovir, reference compound] has an IC50 (HSV-1 [1]; Human alphaherpesvirus 1, HSV-1 passage 1) of 7.54 µM, an IC50 (HSV-1 [1]; Human alphaherpesvirus 1, HSV-1 passage 2) of 37.8 µM and an IC50 (HSV-1 [1]; Human alphaherpesvirus 1, HSV-1 passage 3) of 88.8 µM. It also gave an IC50 (HSV-1 [1]; Human alphaherpesvirus 1, HSV-1 passage 4) of 138 µM, an IC50 (HSV-1 [1]; Human alphaherpesvirus 1, HSV-1 passage 5) of 111 µM and an IC50 (HSV-1 [1]; Human alphaherpesvirus 1, HSV-1 passage 6) of 131 µM. For the same compound, the IC50 (HSV-1 [1]; Human alphaherpesvirus 1, HSV-1 passage 7) was 190 µM, the IC50 (HSV-1 [1]; Human alphaherpesvirus 1, HSV-1 passage 8) was 444 µM and the IC50 (HSV-1 [1]; Human alphaherpesvirus 1, HSV-1 passage 9) was 379 µM. It also gave an IC50 (HSV-1 [1]; Human alphaherpesvirus 1, HSV-1 passage 10) of 444 µM.
For C[C@H](Cc1ccc(OC(=O)CN(C)C)c(OC(=O)CN(C)C)c1)[C@@H](C)Cc1ccc(OC(=O)CN(C)C)c(OC(=O)CN(C)C)c1 [G4N, tetra-O—(N,N-dimethyl)glycyl-nordihydroguaiaretic acid], the “decrease in HSV reactivation” value (HSV-1^R) is listed as 40 μM had 67%, the “apparent equilibrium binding constant (Kapp)” value (Sp1 enhancer sequence) is listed as 3e+06 M⁻¹ and the toxicity (HSV-1 [2]) is listed as “no evidence of toxicity”. For the same compound, the “efficacy against HSV-1 cutaneous infection” value (HSV-1 [3]; 5 mM topically twice daily, 1×10^8 pfu/mL McKrae) was “semi-effective”, the “efficacy against HSV-1 cutaneous infection” value (HSV-1 [3]; 10 mM topically twice daily, 1×10^8 pfu/mL McKrae) was “more effective” and the “efficacy against HSV-1 cutaneous infection” value (HSV-1 [3]; 150 mM topically twice a day, 1×10^4 to 1×10^8 pfu/mL) was “extremely effective”. The “inhibition of HSV-1 induced cutaneous lesion formation and viral shedding” value (HSV-1 [3]; topical application, guinea pig) was “effectively inhibited HSV-1 induced cutaneous lesion formation and viral shedding”, the IC50 (HIV-1) was 36 µM and the average infection score (HSV-2; 0.1 mM) was 0.5. For the same compound, the infection (HSV-2; 0.1 mM) was roughly 12.5%, the animals infected (HSV-2; 0.1 mM, vaginal lavage at three days) was 1 out of 10 and the animals infected (HSV-2; 10 mM) was “no infections detected”. For the same compound, the animals infected (HSV-2; 100 mM) was “no infections detected”, the IC50 (HIV-1RTMF) was 12 µM and the IC50 (HSV-1 [4]; HSV-1 McKrae (Vero from row above)) was 4.5 µM. For the same compound, the IC50 (HSV-1 [4]; Vero cells, HSV-1 KOS) was 3.6 µM, the IC50 ([5]; HSV-1^R F59878) was 2.1 µM and the IC50 ([5]; HSV-1^R T28387) was 4.3 µM. The IC50 (SIVmac239) was 5 µM.
Compound COc1cc(CC(C)C(C)Cc2ccc(O)c(O)c2)ccc1O (stereo not shown) [Mal.4, 3′-O-methyl nordihydroguaiaretic acid] has an IC50 (HIV-1) of 25 µM.
With CC(Cc1ccc(OCCN2CCCCC2)c(OCCN2CCCCC2)c1)C(C)Cc1ccc(OCCN2CCCCC2)c(OCCN2CCCCC2)c1 (stereo not shown) [P4N, tetra-O—(N-ethylpiperidinyl)-nordihydroguaiaretic acid] the “disruption of Sp1 transcription factor binding” value [6] was “disrupt Sp1 transcription factor binding”, the “average scale of infection” value (HSV-2; 10 mM) was 0.19 and the animals infected (HSV-2; 10 mM) was 2 of 10. For the same compound, the “efficacy against vaginal HSV-2 infection” value (HSV-2; in PBS) was “quite effective”.
